Entries after “also recorded” stand apart in the source; their conditions may differ.
System: experienced and trained panelist
Test: Sensorial description of energy drinks and additive solutions with propylene glycol or biologically-produced 1,3-propanediol (multi-sip-and-swallow taste method);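 also: propylene glycol or 1,3-propanediol added at 0.01, 0.1 or 1.0%, tasted by multi-sip-and-swallow in duplicate, compared with matching controls lacking either additive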
Conditions: for Sensorial Description: RT; for increase of sweetness equivalent: with prior DW sipping; for concentration yielding the most consistent reduction in unpleasant taste/masking off-tastes: in vivo; for taste quality of 5-hour ENERGY shots and Bang energy drink: included in 5-hour ENERGY shots and Bang energy drink; for overall tasting quality vs propylene glycol: three additive solutions; for tasting qualities vs propylene glycol: two additive malic acid and sucralose solutions
[1] = PG samples tasted before PDO samples

OCCCO [PDO, 1,3-propanediol]
Sensorial Description (0.01% PG or PDO in 79 ppm sucralose (5% SE) in distilled water): Same as 0.01% PG results.
Sensorial Description (0.01% PG or PDO in 2,000 ppm sucralose in distilled water): (small sip): Similar results as 0.01% PG. Direct
Sensorial Description (0.01% PG or PDO in 3,338 ppm caffeine in distilled water (caffeine shot)): (small sip): similar to Control #65.
Sensorial Description (0.01% PG or PDO in 10,500 ppm malic acid and 2,000 ppm sucralose in distilled water): Little to no sweetness and sourness, similar
Sensorial Description (0.01% PG or PDO in 10,500 ppm malic acid, 2,000 ppm sucralose, 3,338 ppm caffeine in distilled water): Significantly less sweet intensity, less and different
Sensorial Description (0.01% PG or PDO in B vitamins at 5-hour Energy shot concentrations in distilled water): Slightly different from Control (upfront smooth-like)
Sensorial Description (0.01% PG or PDO in Bang energy drink): Still slow onset sourness, less sweetness (more
Sensorial Description (0.01% PG or PDO in Berry flavor in distilled water): No dry taste effect, slight less flavor.
Sensorial Description (0.01% PG or PDO in Monster Energy Zero Ultra): Significantly less off-taste, still strong sweetness and
Sensorial Description (0.01% PG or PDO in Monster Energy drink): Note: Loss of carbonation. No carbonic acid off-
Sensorial Description (0.01% PG or PDO in NOS High Performance Energy Drink): Less Sweet, smoother, no off-taste, significant less
Sensorial Description (0.01% PG or PDO in Orange 5-hour ENERGY shot (5HE Orange)): Not significantly less flavor, tasted better than
Sensorial Description (0.01% PG or PDO in Red Bull Energy Drink): Better taste overall and less off taste than 0.01% PG,
Sensorial Description (0.01% PG or PDO in Red Bull Sugar Free): Much better overall tasting quality, significantly less
Sensorial Description (0.01% PG or PDO in Rockstar Original energy drink): Slight off-flavor, significantly less sourness, still
increase of sweetness equivalent (0.01% in 2,000 ppm sucralose): ~45% more SE.
Sensorial Description (0.1% PG or PDO in 238 ppm sucralose (10% SE) in distilled water): Still slightly more sweetness, thinner but still ~9-
Sensorial Description (0.1% PG or PDO in 338 ppm caffeine in distilled water (caffeine drink)): Stronger bitterness intensity to medium level.
Sensorial Description (0.1% PG or PDO in 2,000 ppm sucralose in distilled water): (small sip): Significantly improved sugar-like tasting
Sensorial Description (0.1% PG or PDO in 3,338 ppm caffeine in distilled water (caffeine shot)): (small sip): similar to Control #65.
Sensorial Description (0.1% PG or PDO in Bang energy drink): Significantly less sourness and sweetness, smoother,
Sensorial Description (0.1% PG or PDO in Berry 5-hour ENERGY shot (5HE Berry)): Significantly better tasting quality than 0.1% PG,
Sensorial Description (0.1% PG or PDO in Berry flavor in distilled water): Less dry than 0.01% PDO, slight less flavor.
Sensorial Description (0.1% PG or PDO in Monster Energy Zero Ultra): More suitable tasting quality (less than 1% but more
Sensorial Description (0.1% PG or PDO in Monster Energy drink): Note: Loss of carbonation. Similar to 0.01% PDO,
Sensorial Description (0.1% PG or PDO in Red Bull Energy Drink): Note: Significant loss of carbonation. Still slight-
Sensorial Description (0.1% PG or PDO in Red Bull Sugar Free): Flatter than 0.01% PDO, low-med flavor, low-med
increase of sweetness equivalent (0.1% in 2,000 ppm sucralose): ~45% more SE.
taste effect at 1% (10,000 ppm) (1% / 1.0% (10,000 ppm) in the compositions studied, listed as biologically-produced 1,3-propanediol): sometimes imparted a smoke and/or off-flavor; also recorded: yielded no further improvement in taste perception
Sensorial Description (1.0% PG or PDO in 79 ppm sucralose (5% SE) in distilled water): Significant off-flavor note, chemical-like note,
Sensorial Description (1.0% PG or PDO in 238 ppm sucralose (10% SE) in distilled water): Off-flavor, thinner-like or chemical-like note,
Sensorial Description (1.0% PG or PDO in 338 ppm caffeine in distilled water (caffeine drink)): Off-flavor taste, delayed onset of bitterness.
Sensorial Description (1.0% PG or PDO in 2,000 ppm sucralose in distilled water): (small sip): off-flavor chemical-like note (plastic-
Sensorial Description (1.0% PG or PDO in 3,338 ppm caffeine in distilled water (caffeine shot)): (small sip): similar to Control #65, slightly
Sensorial Description (1.0% PG or PDO in 10,500 ppm malic acid and 2,000 ppm sucralose in distilled water): Weak off-flavor across the taste, similar qualities
Sensorial Description (1.0% PG or PDO in 10,500 ppm malic acid in distilled water): No off-flavor for sure, however possible Invisible-
Sensorial Description (1.0% PG or PDO in 10,500 ppm malic acid in distilled water, listed as biologically-produced 1,3-propanediol): did not present any expected off-flavor
Sensorial Description (1.0% PG or PDO in 10,500 ppm malic acid, 2,000 ppm sucralose, 3,338 ppm caffeine in distilled water): Very weak off-flavor note, thinner sourness, less
Sensorial Description (1.0% PG or PDO in B vitamins at 5-hour Energy shot concentrations in distilled water): Slight-medium off-flavor note,
Sensorial Description (1.0% PG or PDO in Bang energy drink): Slight and low off-flavor at middle tasting time,
Sensorial Description (1.0% PG or PDO in Berry flavor in distilled water): Moderate chemical-like off-flavor at later
Sensorial Description (1.0% PG or PDO in Monster Energy Zero Ultra): Smoother, medium off flavor at middle tasting
Sensorial Description (1.0% PG or PDO in Monster Energy drink): Note: Little carbonation. Significant undescribed
Sensorial Description (1.0% PG or PDO in NOS High Performance Energy Drink): Off-flavor in middle taste, no or low sourness, not
Sensorial Description (1.0% PG or PDO in Orange 5-hour ENERGY shot (5HE Orange)): Slight or faint off-flavor in background (non-
Sensorial Description (1.0% PG or PDO in Red Bull Energy Drink): Note: significantly less or no carbonation. Significant
reduction in unpleasant taste or masking of off-taste (2,000 ppm, 238 ppm, or 70 ppm sucralose in distilled water): No reduction in unpleasant taste, or masking of off-taste
reduction of unpleasant taste / masking of bitterness (3,382 ppm or 338 ppm caffeine in distilled water): did not reduce the unpleasant taste, or mask the bitterness
maximum useful concentration (across a broad range of food, beverage, and confection compositions): 0.5%
taste modulation of B vitamins (aqueous B vitamins at concentrations comparable to 5-hour ENERGY shots): did not positively modulate
modulation of berry flavor (berry flavor in distilled water): Neither biologically-produced 1,3-propanediol, nor propylene glycol modulated the flavor
concentration yielding the most consistent reduction in unpleasant taste/masking off-tastes (listed as bioPDO): ca. 0.1%
concentration yielding the most consistent reduction in unpleasant taste/masking off-tastes (listed as biologically-produced 1,3-propane diol): about 0.1%
taste quality of 5-hour ENERGY shots and Bang energy drink (listed as Biologically-produced 1,3-propanediol): improved the taste quality
taste quality of 5-hour ENERGY shots and Bang energy drink (listed as biologically-produced 1,3-propanediol): positive taste modulation effect of PDO
taste modulation or sour masking (malic acid at 10,500 ppm in distilled water): no positive taste modulation or sour masking effect
taste modulation of three additive solution (malic acid, sucralose and caffeine at 5-hour ENERGY concentrations in distilled water, compared to solution with propylene glycol): positive taste modulation, or a reduction of unpleasant tastes
taste modulation of single additive solutions (separate caffeine, malic acid, and sucralose solutions at mega-dose levels, listed as biologically-produced 1,3-propanediol): did not positively modulate the taste or mask the bitter, off, or sour tastes; also recorded: neither propylene glycol, nor biologically-produced 1,3-propanediol modulated the taste
taste modulation of two additive solutions (solutions containing a blend of two taste additives): most positive taste modulation effect
overall tasting quality vs propylene glycol (PDO samples tasted before PG samples, similar levels): better overall tasting quality
overall tasting quality vs propylene glycol [1]: no tasting quality differences
tasting qualities vs propylene glycol [1]: tasted marginally better than the propylene glycol-containing samples
tasting qualities vs propylene glycol (direct comparison of PDO to PG): better tasting qualities than those with propylene glycol

Source: patent US12349708B2, “Use and methods of 1,3-propanediol to improve taste and/or off-taste qualities” (Primient Covation LLC, priority 2019, dated 2025)
